This data set is described as follows: Solubility testing of paroxetine hydrochloride in liquid carriers/solvents. In kind it is physicochemical. From the text:
Since solid paroxetine forms are in general only sparingly soluble in common solvents, the solvents which are acceptable for use in capsules and for administration to patients need to be subjected to routine solubility testing to confirm that they can maintain an appropriate concentration of paroxetine. In addition, higher loadings of a paroxetine form in a suitable solvent may be achieved by using conventional physical techniques such as heating, shaking and sonication. Alternatively good solvents for paroxetine may be used in small amounts as cosolvents to solubilize paroxetine in liquids that are acceptable for capsule use but in which paroxetine is poorly soluble. Solubilising agents such as the polysorbates, the poloxamers, cyclodextrins, ionic and non-ionic surface active agents, for example Pluronic F60 and Sorbitan esters may also be used to enhance the solubility of paroxetine hydrochloride in solvents acceptable for capsule use but in which paroxetine is poorly soluble.
The term “oral swallow capsule” most suitably denotes a capsule having a maximum volume of 0.86 ml. Preferred capsules according to the present invention have a maximum volume of about 0.45 ml and more especially may lie in the range 0.2 to 0.4 ml, although capsules as small as 0.14 ml are also provided by the invention. […]

Counter-ions that a name gives are not always drawn.

On to `Fc1ccc([C@@H]2CCNC[C@H]2COc2ccc3c(c2)OCO3)cc1` [paroxetine hydrochloride], for which the solubility (usually how much of the substance goes into solution per volume) (oil or lipid, in plant oils (Sunflower, Safflower, Peanut, Soybean, Cottonseed, Corn, Castor, Apricot seed, Olive, Wheat germ, Sesame, Evening Primrose, Canola), Mineral oil, liquid paraffin, Miglyol 810/812, Oleic acid, Ethyl Oleate, Span 80/85, Labrafac lipophile, Plurol Oleique, Peceol) was less than 10000 µg/mL.

Turning to `Fc1ccc([C@@H]2CCNC[C@H]2COc2ccc3c(c2)OCO3)cc1` [paroxetine, (−)trans isomer of 4-(4′-fluorophenyl)-3-(3′,4′-methylenedioxy-phenoxymethyl)-piperidine], under “in Propylene Carbonate, Triacetin, Glycerol, Lauroglycol, Propylene glycol, PEG 300, Glycofurol, PEG 400, IPA, Span 20, Transcutol, Labrasol, Labrafil, Olepal, Glyceryl Linoleate (Maisine 35-1), Pharmasolve”, the “solubility (in words)” value is reported as “useful solubility”.

These data come from patent US20020032220A1, “Formulations comprising dissolved paroxetine” (SmithKline Beecham plc, priority 1997, published 2002).
